Data as given in patent publication US20250188030A1, “Biphenyl and Phenylpyridine Compounds” (Pfizer Inc., priority 2023, published 2025).
Where two headings read alike, the source gives them in different places.

Molecular target: KAT2A (Homo sapiens (Human), UniProt Q92830)
Experiment: KAT2A acetyltransferase biochemical assay (RapidFire mass spectrometry, AcCoA to CoA)
[1] = read-out: KAT2A Ki at 1 μM AcCoA, 5 μM H3 1-21 peptide, 0.5 nM KAT2A, 90-minute reaction
[2] = KAT2A Ki at 1 μM AcCoA, 5 μM H3 1-21 peptide, 0.5 nM KAT2A, 90-minute reaction

Chain of KAT2A (Q92830 whole entry): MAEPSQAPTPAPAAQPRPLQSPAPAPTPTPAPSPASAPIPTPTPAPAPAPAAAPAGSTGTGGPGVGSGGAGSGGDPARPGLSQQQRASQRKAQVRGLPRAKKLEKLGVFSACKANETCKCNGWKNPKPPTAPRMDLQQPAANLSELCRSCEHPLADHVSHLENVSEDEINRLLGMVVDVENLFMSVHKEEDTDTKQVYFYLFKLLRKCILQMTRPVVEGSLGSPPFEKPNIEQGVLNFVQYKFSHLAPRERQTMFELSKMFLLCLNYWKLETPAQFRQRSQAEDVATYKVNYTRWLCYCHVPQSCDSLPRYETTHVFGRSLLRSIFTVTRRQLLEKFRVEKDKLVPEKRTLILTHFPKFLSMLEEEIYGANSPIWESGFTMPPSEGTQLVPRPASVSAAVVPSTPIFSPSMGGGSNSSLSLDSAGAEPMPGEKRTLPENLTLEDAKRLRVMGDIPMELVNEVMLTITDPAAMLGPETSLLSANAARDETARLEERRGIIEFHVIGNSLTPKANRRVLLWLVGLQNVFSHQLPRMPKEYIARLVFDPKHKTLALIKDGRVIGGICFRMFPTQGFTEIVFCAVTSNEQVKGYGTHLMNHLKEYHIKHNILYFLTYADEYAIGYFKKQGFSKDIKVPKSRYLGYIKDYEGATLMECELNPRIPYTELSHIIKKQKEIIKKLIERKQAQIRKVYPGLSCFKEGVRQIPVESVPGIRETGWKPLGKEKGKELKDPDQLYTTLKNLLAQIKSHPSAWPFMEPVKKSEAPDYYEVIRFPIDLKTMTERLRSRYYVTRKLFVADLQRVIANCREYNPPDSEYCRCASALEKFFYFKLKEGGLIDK

Ki [1] [nM] | Ki [2] [nM] | SMILES
9040 |  | CC(C)c1ccccc1-c1c(CC(=O)O)cccc1O[C@@H]1CC[C@@H](NC(=O)[C@@H]2CC(C)(C)CN2C)C1 (atropisomer, axis not shown) [Example H5, [(1ψ)-2′-(propan-2-yl)-6-({(1R,3R)-3-[(1,4,4-trimethyl-L-prolyl)amino]cyclopentyl}oxy)[1,1′-biphenyl]-2-yl]acetic acid]
348 |  | CC1(C)C[C@@H](C(=O)N[C@@H]2CC[C@@H](Oc3cccc(C(=O)O)c3-c3cccc(F)c3C3CCC3)C2)CN1 (atropisomer, axis not shown) [Example H8, (1ψ)-2′-cyclobutyl-6-{[(1R,3R)-3-{[(3ξ)-5,5-dimethylpyrrolidine-3-carbonyl]amino}cyclopentyl]oxy}-3′-fluoro[1,1′-biphenyl]-2-carboxylic acid]
26400 |  | CC1(C)C[C@@H](C(=O)N[C@@H]2CC[C@@H](Oc3cccc(C(=O)O)c3-c3cccc(F)c3C3CCC3)C2)CN1 (atropisomer, axis not shown) [Example H10]
1100 |  | CC1(C)C[C@H](C(=O)N[C@@H]2CC[C@@H](Oc3cccc(C(=O)O)c3-c3cccc(F)c3C3CCC3)C2)CN1 (atropisomer, axis not shown) [Example H11, (1ψ)-2′-cyclobutyl-6-{[(1R,3R)-3-{[(3ξ)-5,5-dimethylpyrrolidine-3-carbonyl]amino}cyclopentyl]oxy}-3′-fluoro[1,1′-biphenyl]-2-carboxylic acid]
1970 |  | CN1CC(C)(C)C[C@H]1C(=O)N[C@@H]1CC[C@@H](Oc2cccc(C(=O)NS(C)(=O)=O)c2-c2cccc(F)c2C2CCC2)C1 (atropisomer, axis not shown) [Example I2, N-[(1R,3R)-3-({(1ψ)-2′-cyclobutyl-3′-fluoro-6-[(methanesulfonyl)carbamoyl][1,1′-biphenyl]-2-yl}oxy)cyclopentyl]-1,4,4-trimethyl-L-prolinamide]
387 |  | CN1CC(C)(C)C[C@H]1C(=O)N[C@@H]1CC[C@@H](Oc2cccc(CC(=O)NS(N)(=O)=O)c2-c2ccccc2C2CCC2)C1 (atropisomer, axis not shown) [Example I6, N-[(1R,3R)-3-({(1ψ)-2′-cyclobutyl-6-[2-oxo-2-(sulfamoylamino)ethyl][1,1′-biphenyl]-2-yl}oxy)cyclopentyl]-1,4,4-trimethyl-L-prolinamide]
1360 |  | CN1CC2(CCCC2)C[C@@H]1C(=O)N[C@@H]1CC[C@@H](Oc2cccc(C(=O)NS(C)(=O)=O)c2-c2cccc(F)c2C2CCC2)C1 (atropisomer, axis not shown) [Example I8, (3ξ)-N-[(1R,3R)-3-({(1ψ)-2′-cyclobutyl-3′-fluoro-6-[(methanesulfonyl)carbamoyl][1,1′-biphenyl]-2-yl}oxy)cyclopentyl]-2-methyl-2-azaspiro[4.4]nonane-3-carboxamide]
411 |  | CN1CC2(CCCC2)C[C@H]1C(=O)N[C@@H]1CC[C@@H](Oc2cccc(C(=O)NS(C)(=O)=O)c2-c2cccc(F)c2C2CCC2)C1 (atropisomer, axis not shown) [Example I9, (3ξ)-N-[(1R,3R)-3-({(1ψ)-2′-cyclobutyl-3′-fluoro-6-[(methanesulfonyl)carbamoyl][1,1′-biphenyl]-2-yl}oxy)cyclopentyl]-2-methyl-2-azaspiro[4.4]nonane-3-carboxamide]
> 400 |  | O=C(O)Cc1ccc(O[C@@H]2CC[C@@H](NC(=O)[C@]3(F)CNC4(CCC4)C3)C2)c(-c2cccc(F)c2C2CCC2)c1 (single isomer, unassigned) [Example A8]
> 1000 |  | C[C@H](C(=O)O)c1ccc(O[C@@H]2CC[C@@H](NC(=O)[C@@]3(F)CNC4(CCC4)C3)C2)c(-c2cccc(F)c2C2CCC2)c1 (single isomer, unassigned) [Example A17]
751 |  | C[C@H](C(=O)O)c1ccc(O[C@@H]2CC[C@@H](NC(=O)[C@@]3(F)CNC4(CCC4)C3)C2)c(-c2cccc(F)c2C2CCC2)c1 (single isomer, unassigned) [Example A18]
15.4 |  | CC1(C)CNC[C@](F)(C(=O)N[C@@H]2CC[C@@H](Oc3ccc(CC(=O)O)cc3-c3cccc(F)c3C3CCC3)C2)C1 (single isomer, unassigned) [Example A24]
 | 236 | CC(C)S(=O)(=O)NC(=O)C(C)(C)c1ccc(O[C@@H]2CC[C@@H](NC(=O)[C@@]3(F)CNC4(CCC4)C3)C2)c(-c2cccc(F)c2C2CCC2)c1 (single isomer, unassigned) [Example B3]
209 |  | CC(C)(C(=O)NS(=O)(=O)N1CC(F)(F)C1)c1ccc(O[C@@H]2CC[C@@H](NC(=O)[C@]3(F)CNC4(CCC4)C3)C2)c(-c2cccc(F)c2C2CCC2)c1 (single isomer, unassigned) [Example B9]
517 |  | CC(C)(C(=O)NS(=O)(=O)C1CC1)c1ccc(O[C@@H]2CC[C@@H](NC(=O)[C@]3(F)CNC4(CCC4)C3)C2)c(-c2cccc(F)c2C2CCC2)c1 (single isomer, unassigned) [Example B11]
 | 660 | CS(=O)(=O)NC(=O)Cc1ccc(O[C@@H]2CC[C@@H](NC(=O)C3(F)CNC4(CCCC4)C3)C2)c(-c2cccc(F)c2C2CCC2)c1 (single isomer, unassigned) [Example B15]
34.7 |  | CCS(=O)(=O)NC(=O)C(C)(C)c1ccc(O[C@@H]2CC[C@@H](NC(=O)[C@@]3(F)CNC4(CCCC4)C3)C2)c(-c2cccc(F)c2C2CCC2)c1 (single isomer, unassigned) [Example B19]
81.7 |  | CCS(=O)(=O)NC(=O)C(C)(C)c1ccc(O[C@@H]2CC[C@@H](NC(=O)[C@@]3(F)CNCC(C)(C)C3)C2)c(-c2cccc(F)c2C2CCC2)c1 (single isomer, unassigned) [Example B21]
> 1000 |  | CC(C)S(=O)(=O)NC(=O)C(C)(C)c1ccc(O[C@@H]2CC[C@@H](NC(=O)[C@@]3(F)CNC4(CCCC4)C3)C2)c(-c2cccc(F)c2C2CCC2)c1 (single isomer, unassigned) [Example B23]

Ki [1] [nM] | Ki [2] [nM] | SMILES
72.8 |  | CC(C)(C(=O)NS(=O)(=O)C1CC1)c1ccc(O[C@@H]2CC[C@@H](NC(=O)[C@@]3(F)CNC4(CCCC4)C3)C2)c(-c2cccc(F)c2C2CCC2)c1 (single isomer, unassigned) [Example B25]
103 |  | CC1(C)CNC[C@](F)(C(=O)N[C@@H]2CC[C@@H](Oc3ccc(C(C)(C)C(=O)NS(=O)(=O)C4CC4)cc3-c3cccc(F)c3C3CCC3)C2)C1 (single isomer, unassigned) [Example B27]
221 |  | CC(C)S(=O)(=O)NC(=O)C(C)(C)c1ccc(O[C@@H]2CC[C@@H](NC(=O)[C@@]3(F)CNCC(C)(C)C3)C2)c(-c2cccc(F)c2C2CCC2)c1 (single isomer, unassigned) [Example B29]
27.6 |  | CC(C)(C(=O)NS(=O)(=O)C1(C)CC1)c1ccc(O[C@@H]2CC[C@@H](NC(=O)[C@@]3(F)CNC4(CCC4)C3)C2)c(-c2cccc(F)c2C2CCC2)c1 (single isomer, unassigned) [Example B33]
338 |  | CCc1c(F)cccc1-c1cc(C(C)(C)C(=O)NS(C)(=O)=O)ccc1O[C@@H]1CC[C@@H](NC(=O)[C@@]2(F)CNC3(CCCC3)C2)C1 (single isomer, unassigned) [Example C26]
302 |  | CCc1c(F)cccc1-c1cc(C(C)(C)C(=O)NS(=O)(=O)C(C)C)ccc1O[C@@H]1CC[C@@H](NC(=O)[C@@]2(F)CNC3(CCCC3)C2)C1 (single isomer, unassigned) [Example C28]
238 |  | O=C(Cc1ccc(O[C@@H]2CC[C@@H](NC(=O)[C@@]3(F)CNC4(CCC4)C3)C2)c(-c2cccc(F)c2C2CCC2)c1)NS(=O)(=O)C1CC1 (single isomer, unassigned) [Example C30]
321 |  | CC1(C)CNC[C@](F)(C(=O)N[C@@H]2CC[C@@H](Oc3ccc(C(C)(C)C(=O)NS(=O)(=O)C4(C)CC4)cc3-c3cccc(F)c3C3CCC3)C2)C1 (single isomer, unassigned) [Example C34]
118 |  | CC1(C)CNC[C@](F)(C(=O)N[C@@H]2CC[C@@H](Oc3ccc(C(C)(C)C(=O)NS(C)(=O)=O)cc3-c3cccc(F)c3C3CCC3)C2)C1 (single isomer, unassigned) [Example C36]
 | 20.4 | CS(=O)(=O)NC(=O)Cc1ccc(O[C@@H]2CC[C@@H](NC(=O)[C@]3(F)CNC4(CCC4)C3)C2)c(-c2cccc(F)c2C2CCC2)c1 (single isomer, unassigned) [Example C39]
> 99.9 |  | CC(C)c1c(F)cccc1-c1cc(C(C)(C)C(=O)NS(=O)(=O)C2(C)CC2)ccc1O[C@@H]1CC[C@@H](NC(=O)[C@@]2(F)CNC3(CCC3)C2)C1 (single isomer, unassigned) [Example C42]
> 99.9 |  | CC(C)S(=O)(=O)NC(=O)C(C)(C)c1ccc(O[C@@H]2CC[C@@H](NC(=O)[C@]3(F)CNC4(CCC4)C3)C2)c(-c2ccccc2C2CCC2)c1 (single isomer, unassigned) [Example C49]
> 99.9 |  | CC(C)c1ccccc1-c1cc(CC(=O)NS(=O)(=O)C2(C)CC2)ccc1O[C@@H]1CC[C@@H](NC(=O)[C@@]2(F)CNC3(CCCC3)C2)C1 (single isomer, unassigned) [Example C62]
> 99.9 |  | CCS(=O)(=O)NC(=O)Cc1ccc(O[C@@H]2CC[C@@H](NC(=O)[C@@]3(F)CNC4(CCCC4)C3)C2)c(-c2ccccc2C(C)C)c1 (single isomer, unassigned) [Example C64]
11.8 |  | CCc1c(F)cccc1-c1cc(CC(=O)NS(=O)(=O)C(C)C)ccc1O[C@@H]1CC[C@@H](NC(=O)[C@@]2(F)CNCC(C)(C)C2)C1 (single isomer, unassigned) [Example C66]
13.2 |  | CC1(S(=O)(=O)NC(=O)Cc2ccc(O[C@@H]3CC[C@@H](NC(=O)[C@@]4(F)CNC5(CCCC5)C4)C3)c(-c3cccc(F)c3C3CCC3)c2)CC1 (single isomer, unassigned) [Example C68]
> 99.9 |  | CCc1c(F)cccc1-c1cc([C@@H](C)C(=O)NS(=O)(=O)C2(C)CC2)ccc1O[C@@H]1CC[C@@H](NC(=O)[C@@]2(F)CNC3(CCCC3)C2)C1 (single isomer, unassigned) [Example C84]
> 99.9 |  | CCc1c(F)cccc1-c1cc([C@@H](C)C(=O)NS(=O)(=O)C2(C)CC2)ccc1O[C@@H]1CC[C@@H](NC(=O)[C@@]2(F)CNC3(CCCC3)C2)C1 (single isomer, unassigned) [Example C86]
